The values that follow are results of earlier work, collected in paper PMC5915681 (PLoS ONE, 2018).

Structures are written as SMILES.

On the set-up of the data set: method as in PMID 24450858, PMID 24450857.

On to `CC[C@H](Nc1ncnc2[nH]cnc12)c1nc2cccc(F)c2c(=O)n1-c1ccccc1` [idelalisib, Idelalisib], for which the side effects result is “hepatotoxicity and gastrointestinal toxicity”.
